Data: ChEMBL document CHEMBL1201862, “PubChem BioAssay data set” (2004)
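Cultured in 96-well plates, cells were exposed to test compound for 48 hours across five concentrations. At the GI50, growth is halved.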 Calls of active or inactive are those of the source. Rule as the data show it: active = GI50 up to about 1.1 µM and inactive = higher.

Experiments:
Test in all cases: NCI anticancer screen, dose series, 48 h
[1] = tested on: SK-MEL-2
[2] = tested on: T47D
[3] = tested on: K562
[4] = tested on: UACC-257
[5] = tested on: NCI/ADR-RES
[6] = tested on: SK-MEL-5
[7] = tested on: MDA-MB-231
[8] = tested on: SNB-19
[9] = tested on: UACC-62
[10] = tested on: OVCAR-3
[11] = tested on: OVCAR-4
[12] = tested on: M14
[13] = tested on: UO-31
[14] = tested on: HOP-62
[15] = tested on: HCC 2998
[16] = tested on: Hs-578T
[17] = tested on: PC-3
[18] = tested on: SF-539
[19] = tested on: A498

SMILES	GI50 [1]	GI50 [2]	GI50 [3]	GI50 [4]	GI50 [5]	GI50 [6]	GI50 [7]	GI50 [8]	GI50 [9]	GI50 [10]	GI50 [11]	GI50 [12]	GI50 [13]	GI50 [14]	GI50 [15]	GI50 [16]	GI50 [17]	GI50 [18]	GI50 [19]
ClCc1nc2cc(Cl)ccc2o1	5.78 µM (inactive)	2.44 µM (inactive)	2.56 µM (inactive)	9.16 µM (inactive)	20.3 µM (inactive)	11.9 µM (inactive)	3.16 µM (inactive)	7.48 µM (inactive)	8.15 µM (inactive)	1.85 µM (inactive)	1.71 µM (inactive)	4.31 µM (inactive)	1.02 µM (active)	2.27 µM (inactive)	2.26 µM (inactive)	13.7 µM (inactive)	5.15 µM (inactive)	5.51 µM (inactive)	–
COC1CC(OC2C(C)OC(OC3C(C)OC(OC4C(C)OC(O[C@H]5CC[C@@]6(C)C(=CC[C@]7(O)[C@@H]6C[C@@H](OC(C)=O)[C@@]6(C)[C@]7(O)CC[C@@]6(O)C(C)=O)C5)CC4OC)CC3OC)CC2OC)OC(C)C1O (some centres undefined)	> 25 µM (inactive)	> 25 µM (inactive)	> 25 µM (inactive)	> 25 µM (inactive)	> 25 µM (inactive)	> 25 µM (inactive)	> 25 µM (inactive)	> 25 µM (inactive)	> 25 µM (inactive)	> 25 µM (inactive)	> 25 µM (inactive)	> 25 µM (inactive)	> 25 µM (inactive)	> 25 µM (inactive)	> 25 µM (inactive)	> 25 µM (inactive)	> 25 µM (inactive)	> 25 µM (inactive)	–
Nc1nn2c(=O)c3ccccc3nc2s1	> 100 µM (inactive)	87.3 µM (inactive)	28.4 µM (inactive)	> 100 µM (inactive)	> 100 µM (inactive)	56 µM (inactive)	–	> 100 µM (inactive)	> 100 µM (inactive)	> 100 µM (inactive)	> 100 µM (inactive)	28.6 µM (inactive)	28.2 µM (inactive)	> 100 µM (inactive)	> 100 µM (inactive)	> 100 µM (inactive)	> 100 µM (inactive)	43.9 µM (inactive)	> 100 µM (inactive)
O=C1C(NCCN2CCOCC2)=C(Cl)C(=O)c2ncccc21	0.226 µM (active)	1.39 µM (inactive)	0.179 µM (active)	–	–	0.312 µM (active)	1.58 µM (inactive)	1.42 µM (inactive)	0.618 µM (active)	0.392 µM (active)	–	0.469 µM (active)	1.12 µM (active)	1.6 µM (inactive)	0.625 µM (active)	1.21 µM (inactive)	0.289 µM (active)	1.18 µM (inactive)	2.03 µM (inactive)
CCOC(=O)/C=C/CCC(C)(C)COC(C)=O	> 10 µM (inactive)	> 10 µM (inactive)	> 10 µM (inactive)	> 10 µM (inactive)	> 10 µM (inactive)	> 10 µM (inactive)	> 10 µM (inactive)	> 10 µM (inactive)	> 10 µM (inactive)	> 10 µM (inactive)	> 10 µM (inactive)	> 10 µM (inactive)	> 10 µM (inactive)	> 10 µM (inactive)	> 10 µM (inactive)	> 10 µM (inactive)	> 10 µM (inactive)	> 10 µM (inactive)	–
N#Cc1ccc(/C=C2\Cc3ccccc3C2=O)cc1	–	36.3 µM (inactive)	> 100 µM (inactive)	75.2 µM (inactive)	–	> 100 µM (inactive)	> 100 µM (inactive)	> 100 µM (inactive)	> 100 µM (inactive)	> 100 µM (inactive)	> 100 µM (inactive)	> 100 µM (inactive)	43.4 µM (inactive)	> 100 µM (inactive)	> 100 µM (inactive)	51.2 µM (inactive)	> 100 µM (inactive)	> 100 µM (inactive)	–
